Reference: publication PMC9646675 (Nature, 2022)

How the values were obtained:
[1] = molecular target: T1, uncoupling protein 1 (UCP1) (Mus musculus, UniProt P12242); assay: whole-IMM patch clamp, dose-dependent inhibition of IH induced by […] DNP; format: biochemical
T1 sequence (P12242 1-307): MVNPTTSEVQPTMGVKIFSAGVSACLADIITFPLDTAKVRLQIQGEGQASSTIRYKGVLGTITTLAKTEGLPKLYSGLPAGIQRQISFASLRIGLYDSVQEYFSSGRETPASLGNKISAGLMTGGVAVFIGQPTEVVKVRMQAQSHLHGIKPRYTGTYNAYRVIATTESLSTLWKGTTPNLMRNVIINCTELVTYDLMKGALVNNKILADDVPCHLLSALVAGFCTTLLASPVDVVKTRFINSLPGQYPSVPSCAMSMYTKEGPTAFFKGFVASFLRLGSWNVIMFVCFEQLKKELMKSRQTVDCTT

[2] = molecular target: T1, uncoupling protein 1 (UCP1); assay: whole-IMM patch clamp, WT vs UCP1-/-; format: cell-based
ADP/ATP carrier AAC1 = molecular target: T2, ADP/ATP carrier AAC1 (Mus musculus, UniProt P48962); assay: whole-IMM patch clamp; format: cell-based
T2 sequence (P48962 2-298): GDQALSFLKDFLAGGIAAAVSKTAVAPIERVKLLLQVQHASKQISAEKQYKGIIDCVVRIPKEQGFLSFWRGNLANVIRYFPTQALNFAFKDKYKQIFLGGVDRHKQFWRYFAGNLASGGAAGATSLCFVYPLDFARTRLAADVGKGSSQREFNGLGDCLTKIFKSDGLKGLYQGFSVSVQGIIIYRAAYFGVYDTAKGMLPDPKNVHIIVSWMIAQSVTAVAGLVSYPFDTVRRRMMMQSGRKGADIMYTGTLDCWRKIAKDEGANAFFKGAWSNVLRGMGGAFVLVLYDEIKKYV

`Nc1ncnc2c1ncn2[C@@H]1O[C@H](COP(=O)(O)OP(=O)(O)OP(=O)(O)O)[C@@H](O)[C@H]1O` [ATP] was tested, and the IC50 [1] was about 14 µM.
For `O=[N+]([O-])c1ccc(O)c([N+](=O)[O-])c1` [DNP, 2,4-dinitrophenol], the “whole-IMM patch clamp, WT vs UCP1-/-; GDP block; competition with ATP” value [2] was “Thus, UCP1 is crucial for DNP-induced IH in brown fat mitochondria”.
In the case of `N#CC(C#N)=NNc1ccc(OC(F)(F)F)cc1` [FCCP], the “whole-IMM patch clamp (25-250 nM), WT vs AAC1-/-; CATR block” value (ADP/ATP carrier AAC1) is reported as “DNP and FCCP activate IH through AAC”.
